Experimental data from patent US8349791B2, “Polypeptides that bind membrane proteins” (The Trustees of the University of Pennsylvania, priority 2006, dated 2013).
Peptide text beside a SMILES is read from it.

Tests used:
[1] = molecular target: T1, αv TM domain (Homo sapiens, UniProt P06756); assay: DN-TOXCAT heterodimerization; type: cell-based; conditions: coexpressed in bacterial membranes
T1 construct: expressed in transfected cells; host or cells: E. coli MM39, pDNToxR-Duet
Description: Both the affinity and specificity of the membrane protein-binding peptides for their targets when coexpressed in bacterial membranes were assessed with a DN-“TOXCAT” assay (FIGS. 3a-3c). In TOXCAT, a TM sequence of interest is fused to a ToxR protein (TM-ToxR) that binds to the ctx promoter as a dimer, which induces expression of chloramphenicol acetyltransferase (CAT) (W. P. Russ, D. M. Engelman, Proc. Natl. Acad. Sci. U.S.A. 96, 863 (1999); D. Langosch, B. Brosig, H. Kolmar, H. J. Fritz, J. Mol. Biol. 263, 525 (1996)). In the DN assay, the TM1-ToxR fusion protein is coexpressed with a second fusion protein (TM2-ToxR*) containing a nonfunctional mutant of the ToxR domain. TM-driven dimerization leads to a ToxR-ToxR* dimer that is unable to bind the ctx promoter or to induce CAT synthesis (FIG. 3a). The resulting decrease in CAT activity can be used to monitor the formation of a heterodimeric TM complex. In principle, this assay could be accomplished by adding an exogenous synthetic peptide (D. Gerber, N. Sal-Man, Y. Shai, J. Mol. Biol. 339, 243 (2004)); however, it is difficult to assure that different peptides will be similarly inserted into the Escherichia coli inner membrane.
For testing the specificity of the designed membrane protein-binding polypeptide sequences against the integrin TM domains, the designed sequences (anti-αIIb and anti-αV) were cloned into MCS1 of the Duet vector and the integrin TM domains into MCS2 of the Duet vector. In this configuration, the integrin TMs compete for the homodimers formed by the polypeptide sequences, with the decrease in CAT signal proportional to the extent of heterodimerization between a given integrin TM and polypeptide sequence relative to the homodimerization of the polypeptide sequence.
Single MM39 colonies containing pDNToxR-Duet constructs from selective plates were chosen, inoculated in 5 mL of LB medium containing 100 μg/mL ampicillin and grown to an OD600 of 0.2 at 37° C. with vigorous shaking. IPTG was added to the medium at a final concentration of 0.1 mM IPTG and grown to an OD600 of 0.7. Purification, immunoblotting, CAT ELISA and MalE complementation assays are essentially as described previously. Li, R., Gorelik, R., Nanda, V., Law, P. B., Lear, J. D., DeGrado, W. F. and Bennett, J. S. J. Biol. Chem. 2004, 279, 26666-26673 (2004). For immunoblotting, anti-MBP (NEB) was used for pccKAN (TOXCAT) constructs, whereas anti-myc (Covance) and anti-HA (Covance) were used for pDNToxR-Duet constructs. CAT ELISA results are an average of 3 independent replicates.

[2] = TOXCAT homodimerization in bacterial membranes; type: cell-based, Escherichia coli; conditions: ToxR fusion in E. coli
Description: Both the affinity and specificity of the membrane protein-binding peptides for their targets when coexpressed in bacterial membranes were assessed with a DN-“TOXCAT” assay (FIGS. 3a-3c). In TOXCAT, a TM sequence of interest is fused to a ToxR protein (TM-ToxR) that binds to the ctx promoter as a dimer, which induces expression of chloramphenicol acetyltransferase (CAT) (W. P. Russ, D. M. Engelman, Proc. Natl. Acad. Sci. U.S.A. 96, 863 (1999); D. Langosch, B. Brosig, H. Kolmar, H. J. Fritz, J. Mol. Biol. 263, 525 (1996)). In the DN assay, the TM1-ToxR fusion protein is coexpressed with a second fusion protein (TM2-ToxR*) containing a nonfunctional mutant of the ToxR domain. TM-driven dimerization leads to a ToxR-ToxR* dimer that is unable to bind the ctx promoter or to induce CAT synthesis (FIG. 3a). The resulting decrease in CAT activity can be used to monitor the formation of a heterodimeric TM complex. In principle, this assay could be accomplished by adding an exogenous synthetic peptide (D. Gerber, N. Sal-Man, Y. Shai, J. Mol. Biol. 339, 243 (2004)); however, it is difficult to assure that different peptides will be similarly inserted into the Escherichia coli inner membrane. […]

[3] = Trp fluorescence, phospholipid bilayer insertion; type: physicochemical; conditions: for insertion into phospholipid vesicles: FIG. 9
Description: Fluorescence intensity was measured on an ATF 105 spectrofluorometer (Aviv Biomedical, Inc., Lakewood, N.J.) using a 0.3 cm path length cuvette. Small unilamellar vesicles composed of 1-Palmitoyl-2-Oleoyl-sn-Glycero-3-Phosphocholine and 1-Palmitoyl-2-Oleoyl-sn-Glycero-3-[Phospho-rac-(1-glycerol)] (7:3) were prepared using standard ethanol dilution (Batzri S & Korn E D. Biochim. Biophys. Acta. 298, 1015-1019 (1973)): phospholipids were initially dissolved in 15 μl ethanol and then diluted to 1 ml with buffer (20 mM HEPES, pH=7.5). Samples with 1 μM anti-αIIb in the presence of 0, 100, and 500 μM total phospholipids were prepared. Excitation of 280 nm was used for emission scans ranging from 410 nm to 300 nm. Excitation and emission slit widths are 2.5 nm and 1.5 nm, respectively. An average time of 1.0 second was used.
See FIG. 9, which provides the emission scans of anti-αIIb (1 μM) and of anti-αV in the presence of three different concentrations of phospholipids. Provided are emission scans of 1 μM anti-αIIb (FIG. 9a) and 1 μM anti-αV (FIG. 9b) in presence of 0 μM (*), 100 μM (†), and 500 μM (^) of phospholipids (POPC:POPG=7:3, excitation wavelength=280 nm). The emission maximum of the Trp residue in anti-αIIb occurs at 353 nm, consistent with a fully-exposed Trp residue in the absence of membranes. In the presence of phospholipids vesicles, the emission maximum blue-shifts by 31 nm, indicating a transfer to a membrane-like environment.

[4] = molecular target: T2, αIIbβ3 (Homo sapiens, UniProt P08514); assay: Force spectroscopy (laser tweezers), platelets and fibrinogen-coated beads; type: cell-based
T2 construct: trapped from a suspension of gel filtered human platelets or CHO cells; endogenous in cells; host or cells: gel-filtered human platelets
Description: Litvinov R I et al. Proc. Natl. Acad. Sci. USA. 99, 7426-31 (2002). Recombinant human OPN, prepared as previously described (Bennett J S et al. J. Biol. Chem. 272, 8137-40 (1997)) or purified human fibrinogen was covalently bound to 0.93 μm carboxylate-modified latex beads. Individual cells, trapped from a suspension of gel filtered human platelets or CHO cells, were manually attached to 5 μm diameter silica pedestals coated with polylysine. An OPN- or fibrinogen-coated bead, trapped by the laser light, was then brought into proximity of an immobilized cell, oscillated at 50 Hz, and then brought into repeated intermittent contact with the cell by micromanipulation. Data collection was initiated at the first contact between the bead and the cell. Rupture forces following repeated contacts were collected for periods of several seconds to one minute. Individual forces measured during each contact-detachment cycle were collected into 10 pN-wide bins. The number of events in each bin was then plotted against the average force for that bin after normalizing for the total number of interaction cycles. Thus, the percentage of events in a particular force range (bin) represents the probability of rupture events at that tension. Optical artifacts observed with or without trapped latex beads produce signals that appeared as forces below 10 pN. Therefore, rupture forces in this range were not considered when the data were analyzed. The polypeptide was added from a DMSO solution such that the final concentration of DMSO was no greater than 0.5%. All controls also had 0.5% DMSO in the buffer.
Beads coated with fibrinogen were brought into intermittent contact with immobilized platelets in the presence or absence of anti-αIIb and the rupture force was measured. Litvinov R I et al. J. Biol. Chem. 278, 51285-51290 (2003). In the absence of anti-αIIb, the binding probability of platelets and fibrinogen-coated beads decreased exponentially (FIG. 5a) with increasing force, consistent with a non-specific interaction of the beads with the platelet surface. Litvinov R I (2003). […]

T2 sequence (P08514 891-1039 limits assumed): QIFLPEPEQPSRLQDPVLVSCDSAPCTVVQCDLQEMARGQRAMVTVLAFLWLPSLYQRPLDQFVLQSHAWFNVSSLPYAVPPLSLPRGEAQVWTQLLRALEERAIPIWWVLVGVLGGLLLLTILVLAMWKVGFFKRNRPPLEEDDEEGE
T2 sequence (P08514 32-887 partner limits assumed): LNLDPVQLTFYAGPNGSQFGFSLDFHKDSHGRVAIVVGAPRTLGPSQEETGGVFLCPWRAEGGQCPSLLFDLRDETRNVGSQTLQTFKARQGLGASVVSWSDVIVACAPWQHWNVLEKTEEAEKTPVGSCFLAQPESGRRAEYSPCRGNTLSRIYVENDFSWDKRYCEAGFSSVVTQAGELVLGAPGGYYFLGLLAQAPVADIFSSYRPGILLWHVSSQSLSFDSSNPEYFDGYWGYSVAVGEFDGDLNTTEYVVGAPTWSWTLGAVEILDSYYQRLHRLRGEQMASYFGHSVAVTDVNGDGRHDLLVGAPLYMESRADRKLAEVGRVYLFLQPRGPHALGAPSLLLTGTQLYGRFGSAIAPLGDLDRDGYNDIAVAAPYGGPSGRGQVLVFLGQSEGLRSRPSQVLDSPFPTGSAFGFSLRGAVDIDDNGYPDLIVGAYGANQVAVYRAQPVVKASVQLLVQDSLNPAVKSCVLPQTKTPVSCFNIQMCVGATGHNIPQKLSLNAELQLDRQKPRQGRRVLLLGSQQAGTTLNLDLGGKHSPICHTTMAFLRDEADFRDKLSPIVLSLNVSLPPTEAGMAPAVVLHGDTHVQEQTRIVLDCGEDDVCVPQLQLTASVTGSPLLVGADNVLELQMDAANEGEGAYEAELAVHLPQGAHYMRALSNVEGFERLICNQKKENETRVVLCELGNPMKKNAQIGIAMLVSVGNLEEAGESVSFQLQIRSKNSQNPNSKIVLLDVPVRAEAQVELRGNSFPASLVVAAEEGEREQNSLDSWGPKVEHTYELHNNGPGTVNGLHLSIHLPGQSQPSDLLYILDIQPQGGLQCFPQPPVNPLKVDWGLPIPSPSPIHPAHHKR
T2 sequence (P05106 27-788 partner): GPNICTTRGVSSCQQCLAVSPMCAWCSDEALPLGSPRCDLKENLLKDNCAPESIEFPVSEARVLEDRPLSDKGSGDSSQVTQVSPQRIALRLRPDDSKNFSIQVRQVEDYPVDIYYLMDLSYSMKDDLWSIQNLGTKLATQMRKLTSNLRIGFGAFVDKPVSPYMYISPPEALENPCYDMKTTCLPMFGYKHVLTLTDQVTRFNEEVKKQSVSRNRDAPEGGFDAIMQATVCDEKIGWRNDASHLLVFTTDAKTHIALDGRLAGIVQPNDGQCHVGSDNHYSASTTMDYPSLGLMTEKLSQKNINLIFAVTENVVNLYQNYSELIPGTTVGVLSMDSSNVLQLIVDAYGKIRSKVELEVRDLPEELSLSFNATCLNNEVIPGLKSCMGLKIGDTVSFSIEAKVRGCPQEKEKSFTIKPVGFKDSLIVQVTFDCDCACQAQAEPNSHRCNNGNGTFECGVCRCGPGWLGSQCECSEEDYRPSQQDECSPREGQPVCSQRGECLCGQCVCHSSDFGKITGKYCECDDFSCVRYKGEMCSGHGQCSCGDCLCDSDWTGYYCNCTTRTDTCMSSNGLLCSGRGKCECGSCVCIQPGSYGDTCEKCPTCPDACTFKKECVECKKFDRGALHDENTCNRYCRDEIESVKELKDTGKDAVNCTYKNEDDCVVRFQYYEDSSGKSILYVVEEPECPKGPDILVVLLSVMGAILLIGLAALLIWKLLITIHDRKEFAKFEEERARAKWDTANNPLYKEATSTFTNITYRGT
T1 sequence (P06756 with tags, fused parts or gaps limits assumed): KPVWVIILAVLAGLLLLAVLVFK

Compound | interaction with αv TM domain [1] | homodimer formation in bacterial membranes (CAT signal, words) [2] | blue-shift of Trp emission maximum in the presence of phospholipid vesicles ([3]; 1 μM peptide, POPC:POPG 7:3 vesicles) [nm] | emission maximum of the Trp residue in the absence of membranes ([3]; 1 μM peptide, excitation 280 nm, 0 μM phospholipids) [nm] | insertion into phospholipid vesicles [3] | peak of rupture force between platelets and fibrinogen-coated beads ([4]; 0.5 μM polypeptide) [pN] | rupture force peak after pre-incubation with αIIbβ3 antibody abciximab ([4]; 0.5 μM polypeptide) | rupture force / activation, platelets and fibrinogen-coated beads [4]
CC[C@H](C)[C@H](NC(=O)[C@H](Cc1ccccc1)NC(=O)[C@H](Cc1ccccc1)NC(=O)[C@@H]1CCCN1C(=O)[C@H](CC(C)C)NC(=O)[C@H](CC(C)C)NC(=O)[C@H](CCSC)NC(=O)[C@@H](NC(=O)[C@H](Cc1ccc(O)cc1)NC(=O)[C@H](C)NC(=O)[C@H](CCCCN)NC(=O)[C@@H](N)CCCCN)C(C)C)C(=O)NCC(=O)N[C@@H](CC(C)C)C(=O)N[C@@H](CC(C)C)C(=O)N[C@@H](CC(C)C)C(=O)NCC(=O)N[C@@H](CC(C)C)C(=O)N[C@H](C(=O)N[C@@H](Cc1ccccc1)C(=O)NCC(=O)NCC(=O)N[C@@H](C)C(=O)N[C@@H](Cc1ccccc1)C(=O)N[C@@H](Cc1c[nH]c2ccccc12)C(=O)NCC(=O)N1CCC[C@H]1C(=O)N[C@@H](C)C(=O)N[C@@H](CCCNC(=N)N)C(=O)N[C@@H](Cc1c[nH]cn1)C(=O)N[C@@H](CC(C)C)C(=O)N[C@@H](CCCCN)C(=O)N[C@@H](CCCCN)C(N)=O)[C@@H](C)CC [anti-αIIb] (H-KKAYVMLLPFFIGLLLGLIFGGAFWGPARHLKK-NH2; N-terminus assumed) | failed to significantly interact | affinity similar to that of the TM domain of glycophorin A (GpA) | 31 | 353 | successfully insert | ~70 | eliminated the rupture force peak | 
AYVFILLSFILGTLLGFLVMFWA [anti-αV] | much greater affinity than the α2, αIIb, β1, or β3 domains | affinity similar to that of the TM domain of glycophorin A (GpA) |  |  | successfully insert |  |  | no peak of specific rupture force was observed
